Experimental data reported in patent US20250186405A1, “Compound For Use In Treating Narcolepsy” (Alkermes, Inc., priority 2023, published 2025).
Values joined by “and” are separate entries in the source; they are usually repeats but may differ in a detail not shown here. Equal entries are not always repeated.

Test system: subjects with narcolepsy type-1 (NT1)
Experiment: Part 4 POC NT1: treatment-emergent adverse events, single doses, crossover
Format: in vivo, human
Experimental: Subjects were randomized to 1 of 4 sequences.
Each subject received three doses of Compound A, including 1, 3, and 8 mg, and a single dose of placebo. […] All subjects underwent the washout period and completed all 4-way randomized crossover periods.
With one exception, each subject received three doses of Compound A, including 1, 3, and 8 mg, and a single dose of placebo. One patient withdrew from the study after the first dose due to venous access complications. […] With the exception of one patient as noted above, all subjects underwent the washout period and completed all 4-way randomized crossover periods.

## CS(=O)(=O)N[C@H]1CCCN2C(=O)COc3ccccc3C3CCC(CC3)OCC12 (stereo partly drawn) [Compound A, N-[(4S,4aR,7α,10α)-1,2,3,4,4a,5,7,8,9,10,16,17-dodecahydro-17-oxo-7,10-ethanopyrido[1,2-d][1,7,4]benzodioxaazacyclotridecin-4-yl]methanesulfonamide]
1 mg (N = 4)
  AE Leading to Study Drug Discontinuation: 0 n (%)
  Any SAEs: 0 n (%)
  Any TEAE: 1 (25.0) n (%)
  Death: 0 n (%)
  TEAE Anaemia: 0 n (%)
  TEAE Application site dermatitis: 1 (25.0) n (%)
  TEAE Blood pressure increased: 0 n (%)
  TEAE Bruxism: 0 n (%)
  TEAE Dermatitis contact: 0 n (%)
  TEAE Dizziness: 0 n (%)
  TEAE Hyperhidrosis: 0 n (%)
  TEAE Hyperlipidaemia: 0 n (%)
  TEAE Insomnia: 0 n (%)
  TEAE Pollakiuria: 0 n (%)
  TEAE Procedural anxiety: 0 n (%)
  TEAE Salivary hypersecretion: 0 n (%)
  TEAE Vascular access site injury: 0 n (%)
  TEAE Vessel puncture site bruise: 0 n (%)
  TEAE by Highest Relationship: Not Related: 1 (25.0) n (%)
  TEAE by Highest Relationship: Related: 0 n (%)
  TEAE by Highest Severity: Mild: 1 (25.0) n (%)
  TEAE by Highest Severity: Moderate: 0 n (%)
  TEAE by Highest Severity: Severe: 0 n (%)
1 mg (N = 9)
  AE Leading to Study Drug Discontinuation: 0 n (%)
  Any SAEs: 0 n (%)
  Any TEAE: 6 (66.7) n (%)
  Death: 0 n (%)
  TEAE Anaemia: 0 n (%)
  TEAE Application site dermatitis: 1 (11.1) n (%)
  TEAE Back pain: 0 n (%)
  TEAE Blood pressure increased: 0 n (%)
  TEAE Bruxism: 0 n (%)
  TEAE Decreased appetite: 1 (11.1) n (%)
  TEAE Dehydration: 1 (11.1) n (%)
  TEAE Dermatitis contact: 0 n (%)
  TEAE Dizziness: 1 (11.1) n (%)
  TEAE Haemoglobin decreased: 0 n (%)
  TEAE Headache: 0 n (%)
  TEAE Hyperhidrosis: 0 n (%)
  TEAE Hyperlipdaemia: 0 n (%)
  TEAE Insomnia: 0 n (%)
  TEAE Middle Insomnia: 0 n (%)
  TEAE Nausea: 2 (22.2) n (%)
  TEAE Pollakiuria: 0 n (%)
  TEAE Salivary hypersecretion: 1 (11.1) n (%)
  TEAE Sinus tachycardia: 1 (11.1) n (%)
  TEAE Vascular access site injury: 0 n (%)
  TEAE Vessel puncture site bruise: 0 n (%)
  TEAE Vessel puncture site pain: 0 n (%)
  TEAE by Highest Relationship: Not Related: 1 (11.1) n (%)
  TEAE by Highest Relationship: Related: 5 (55.6) n (%)
  TEAE by Highest Severity: Mild: 6 (66.7) n (%)
  TEAE by Highest Severity: Moderate: 0 n (%)
  TEAE by Highest Severity: Severe: 0 n (%)
3 mg (N = 4)
  AE Leading to Study Drug Discontinuation: 0 n (%)
  Any SAEs: 0 n (%)
  Any TEAE: 2 (50.0) n (%)
  Death: 0 n (%)
  TEAE Anaemia: 0 n (%)
  TEAE Application site dermatitis: 0 n (%)
  TEAE Blood pressure increased: 0 n (%)
  TEAE Bruxism: 0 n (%)
  TEAE Dermatitis contact: 1 (25.0) n (%)
  TEAE Dizziness: 0 n (%)
  TEAE Hyperhidrosis: 0 n (%)
  TEAE Hyperlipidaemia: 0 n (%)
  TEAE Insomnia: 0 n (%)
  TEAE Pollakiuria: 0 n (%)
  TEAE Procedural anxiety: 1 (25.0) n (%)
  TEAE Salivary hypersecretion: 0 n (%)
  TEAE Vascular access site injury: 1 (25.0) n (%)
  TEAE Vessel puncture site bruise: 1 (25.0) n (%)
  TEAE by Highest Relationship: Not Related: 2 (50.0) n (%)
  TEAE by Highest Relationship: Related: 0 n (%)
  TEAE by Highest Severity: Mild: 2 (50.0) n (%)
  TEAE by Highest Severity: Moderate: 0 n (%)
  TEAE by Highest Severity: Severe: 0 n (%)
3 mg (N = 9)
  AE Leading to Study Drug Discontinuation: 0 n (%)
  Any SAEs: 0 n (%)
  Any TEAE: 5 (55.6) n (%)
  Death: 0 n (%)
  TEAE Anaemia: 0 n (%)
  TEAE Application site dermatitis: 0 n (%)
  TEAE Back pain: 0 n (%)
  TEAE Blood pressure increased: 0 n (%)
  TEAE Bruxism: 0 n (%)
  TEAE Decreased appetite: 0 n (%)
  TEAE Dehydration: 0 n (%)
  TEAE Dermatitis contact: 2 (22.2) n (%)
  TEAE Dizziness: 0 n (%)
  TEAE Haemoglobin decreased: 0 n (%)
  TEAE Headache: 0 n (%)
  TEAE Hyperhidrosis: 0 n (%)
  TEAE Hyperlipdaemia: 0 n (%)
  TEAE Insomnia: 0 n (%)
  TEAE Middle Insomnia: 1 (11.1) n (%)
  TEAE Nausea: 0 n (%)
  TEAE Pollakiuria: 2 (22.2) n (%)
  TEAE Salivary hypersecretion: 1 (11.1) n (%)
  TEAE Sinus tachycardia: 0 n (%)
  TEAE Vascular access site injury: 1 (11.1) n (%)
  TEAE Vessel puncture site bruise: 1 (11.1) n (%)
  TEAE Vessel puncture site pain: 0 n (%)
  TEAE by Highest Relationship: Not Related: 2 (22.2) n (%)
  TEAE by Highest Relationship: Related: 3 (33.3) n (%)
  TEAE by Highest Severity: Mild: 5 (55.6) n (%)
  TEAE by Highest Severity: Moderate: 0 n (%)
  TEAE by Highest Severity: Severe: 0 n (%)
8 mg (N = 4)
  AE Leading to Study Drug Discontinuation: 0 n (%)
  Any SAEs: 0 n (%)
  Any TEAE: 4 (100) n (%) and 4 n (%)
  Death: 0 n (%)
  TEAE Anaemia: 0 n (%)
  TEAE Application site dermatitis: 1 n (%)
  TEAE Blood pressure increased: 1 n (%)
  TEAE Bruxism: 1 n (%)
  TEAE Dermatitis contact: 0 n (%)
  TEAE Dizziness: 1 n (%)
  TEAE Hyperhidrosis: 1 n (%)
  TEAE Hyperlipidaemia: 0 n (%)
  TEAE Insomnia: 3 n (%)
  TEAE Pollakiuria: 2 n (%)
  TEAE Procedural anxiety: 0 n (%)
  TEAE Salivary hypersecretion: 2 n (%)
  TEAE Vascular access site injury: 0 n (%)
  TEAE Vessel puncture site bruise: 0 n (%)
  TEAE by Highest Relationship: Not Related: 0 n (%)
  TEAE by Highest Relationship: Related: 4 (100) n (%)
  TEAE by Highest Severity: Mild: 4 (100) n (%)
  TEAE by Highest Severity: Moderate: 0 n (%)
  TEAE by Highest Severity: Severe: 0 n (%)
8 mg (N = 10)
  AE Leading to Study Drug Discontinuation: 0 n (%)
  Any SAEs: 0 n (%)
  Any TEAE: 9 (90.0) n (%)
  Death: 0 n (%)
  TEAE Anaemia: 0 n (%)
  TEAE Application site dermatitis: 1 (10.0) n (%)
  TEAE Back pain: 1 (10.0) n (%)
  TEAE Blood pressure increased: 1 (10.0) n (%)
  TEAE Bruxism: 1 (10.0) n (%)
  TEAE Decreased appetite: 1 (10.0) n (%)
  TEAE Dehydration: 0 n (%)
  TEAE Dermatitis contact: 0 n (%)
  TEAE Dizziness: 2 (20.0) n (%)
  TEAE Haemoglobin decreased: 1 (10.0) n (%)
  TEAE Headache: 0 n (%)
  TEAE Hyperhidrosis: 1 (10.0) n (%)
  TEAE Hyperlipdaemia: 0 n (%)
  TEAE Insomnia: 3 (30.0) n (%)
  TEAE Middle Insomnia: 3 (30.0) n (%)
  TEAE Nausea: 2 (20.0) n (%)
  TEAE Pollakiuria: 4 (40.0) n (%)
  TEAE Salivary hypersecretion: 3 (30.0) n (%)
  TEAE Sinus tachycardia: 1 (10.0) n (%)
  TEAE Vascular access site injury: 0 n (%)
  TEAE Vessel puncture site bruise: 2 (20.0) n (%)
  TEAE Vessel puncture site pain: 2 (20.0) n (%)
  TEAE by Highest Relationship: Not Related: 0 n (%)
  TEAE by Highest Relationship: Related: 9 (90.0) n (%)
  TEAE by Highest Severity: Mild: 8 (80.0) n (%)
  TEAE by Highest Severity: Moderate: 1 (10.0) n (%)
  TEAE by Highest Severity: Severe: 0 n (%)
NT1, 1, 3 and 8 mg
  Tolerability: well tolerated
Total (N = 4)
  AE Leading to Study Drug Discontinuation: 0 n (%)
  Any SAEs: 0 n (%)
  Any TEAE: 4 (100) n (%) and 4 n (%)
  Death: 0 n (%)
  TEAE Anaemia: 0 n (%)
  TEAE Application site dermatitis: 2 n (%)
  TEAE Blood pressure increased: 1 n (%)
  TEAE Bruxism: 1 n (%)
  TEAE Dermatitis contact: 1 n (%)
  TEAE Dizziness: 1 n (%)
  TEAE Hyperhidrosis: 1 n (%)
  TEAE Hyperlipidaemia: 0 n (%)
  TEAE Insomnia: 3 n (%)
  TEAE Pollakiuria: 2 n (%)
  TEAE Procedural anxiety: 1 n (%)
  TEAE Salivary hypersecretion: 2 n (%)
  TEAE Vascular access site injury: 1 n (%)
  TEAE Vessel puncture site bruise: 1 n (%)
  TEAE by Highest Relationship: Not Related: 0 n (%)
  TEAE by Highest Relationship: Related: 4 (100) n (%)
  TEAE by Highest Severity: Mild: 4 (100) n (%)
  TEAE by Highest Severity: Moderate: 0 n (%)
  TEAE by Highest Severity: Severe: 0 n (%)
Total (N = 10)
  Any TEAE: 9 (90.0) n (%)
  TEAE Anaemia: 0 n (%)
  TEAE Application site dermatitis: 2 (20.0) n (%)
  TEAE Back pain: 1 (10.0) n (%)
  TEAE Blood pressure increased: 1 (10.0) n (%)
  TEAE Bruxism: 1 (10.0) n (%)
  TEAE Decreased appetite: 2 (20.0) n (%)
  TEAE Dehydration: 1 (10.0) n (%)
  TEAE Dermatitis contact: 2 (20.0) n (%)
  TEAE Dizziness: 2 (20.0) n (%)
  TEAE Haemoglobin decreased: 1 (10.0) n (%)
  TEAE Headache: 0 n (%)
  TEAE Hyperhidrosis: 1 (10.0) n (%)
  TEAE Hyperlipdaemia: 0 n (%)
  TEAE Insomnia: 3 (30.0) n (%)
  TEAE Middle Insomnia: 3 (30.0) n (%)
  TEAE Nausea: 2 (20.0) n (%)
  TEAE Pollakiuria: 4 (40.0) n (%)
  TEAE Salivary hypersecretion: 3 (30.0) n (%)
  TEAE Sinus tachycardia: 1 (10.0) n (%)
  TEAE Vascular access site injury: 1 (10.0) n (%)
  TEAE Vessel puncture site bruise: 3 (30.0) n (%)
  TEAE Vessel puncture site pain: 2 (20.0) n (%)
